For experiment [1], the target named is human recombinant monomeric α-Synuclein (Homo sapiens, UniProt P37840). The experiment is described as follows: Thioflavin-T fluorescence assay of α-Synuclein amyloid aggregation. Type of experiment: biochemical. The note with it: test compound 100 μM; 70 μM α-Synuclein; after 144 hours of shaking; percent of optimal response without tetracycline. The protocol: Aggregation studies were performed at 37° C. on samples containing 70 μM human recombinant monomeric α-Synuclein that were submitted to constant orbital agitation (Thermomixer Comfort, Eppendorf) at 600 rpm in the absence or in the presence of test compounds, at 100 μM. The formation of α-Synuclein aggregated species was monitored using the fluorescence probe Thioflavin-T (LeVine, Methods Enzymol. 1999, 309, 274-284; González-Lizárraga, et al. Sci Rep. 2017, 7, 41755), at a concentration of 25 μM. Changes in emission fluorescence were measured after 144 hrs of continuous shaking, at an excitation wavelength of 450 nm using a Horiba FluoroMax 4 spectrometer.

The subject of another experiment is E. coli DH5α. The experiment is described as follows: Disc diffusion assay to assess antimicrobial activities (inhibition of bacterial growth). Conditions: read-out: Minimal inhibitory concentration. Type of experiment: cell-based. How it is done: The antibacterial activities of test compounds were evaluated using the disc diffusion method (Kavanagh, Academic Press, Inc., New York, 1963, 125-140; Pomares et al, J Bacteriol. 2008, 30 190, 4328-4334). Briefly, filter-paper discs impregnated with 10 μl of two-fold serial dilutions of test compounds were placed onto LB solid medium Petri dishes. Then, aliquots (50 μl) of an E. coli DH5α culture in stationary phase were mixed with 3 ml of top agar (0.7% agar) and overlaid onto the plates. After overnight incubation at 37° C., the plates were examined for different degrees of inhibition. The antibacterial efficacy of a test compound was estimated by the Minimum Inhibitory Concentration (MIC) assay that determines the lowest concentration inhibiting visible growth of bacteria. Each test was performed in duplicate vs. the reference compound, doxycycline (“DOX”).
A general note: A growth-free zone around the sample is the usual read-out of agar diffusion tests.

Experiment [2] has as its system dopaminergic midbrain neurons (TH+). The experiment can be described thus: Neuroprotection of TH+ dopaminergic neurons in primary mouse midbrain cultures (spontaneous oxidative stress). Type of experiment: cell-based. The note with it: Neuron, 168 h, cultured for 7 days, estimated graphically, read-out: EC50 (concentration protecting 50% of TH+ neurons). How it is done: The inventors have further shown that compounds 1-H and 1-Me exert robust and concentration-dependent neuroprotective effects in a cell model in which the dopaminergic midbrain neurons, vulnerable in Parkinson's disease, degenerate further to a spontaneous oxidative stress of low intensity resulting from the presence of catalytic iron in the culture medium (Guerreiro et al, J Neurochem. 2009; 109(4):1118-28; Rousseau et al, Mol Pharmacol. 2013; 84(6):888-98).
Cultures were carried out using embryos of Swiss mice (Janvier LABS, Le Genest St. Isles, 30 France), collected at 13.5 days of gestation. The experimental procedures were performed in accordance with Directive 2010/63/EU of the Council of the European Union, using a protocol validated by the Charles Darwin ethics committee no. 5. The protocol is based on techniques reported previously (Rousseau et al, 2013, supra; Lavaur et al, J Neurochem. 2017; 142(1):14-28), using an additional step of trypsinization with an EDTA (2mM)-trypsin (0.05%) solution to facilitate the dissociation of brain tissue. The cells in suspension are distributed in 48-well multi-well dishes (Nunc; ThermoFisher Scientific), at a density of 50-80. 10^3 cells/cm^2, using Dulbecco's Modified Eagle's Medium/Nutrient Mixture F-12 Ham (Sigma-Aldrich), supplemented with 10% fetal calf serum. After 2 hours, the cultures are washed completely and placed in the presence of the same medium containing only 20 μg/ml of bovine insulin. The cultures are also treated with cytarabine (1.5 μM) on the first day in vitro and on the following day to reduce the number of glial cells in the cultures.
These cultures contain between 1 to 2% of dopaminergic neurons. […] Assessment of the number of dopaminergic neurons is done by counting TH^+ neurons with a Nikon Eclipse Ti-U inverted microscope.
The reference molecule used to prevent the loss of dopaminergic neurons is apotransferrin (APO; Sigma Aldrich; 100 μg/ml), a protein that chelates ferric iron in culture medium.

The mark [3] stands for this setting: E. coli DH5α, disc diffusion, overnight incubation at 37° C., assayed twice.
Where [4] appears, read: Escherichia coli, E. coli DH5α, disc diffusion, overnight incubation at 37° C., assayed twice.

In brackets after ≈: the same amount, converted by molar mass. Where two headings read alike, the source gives them in different places. Where only a bound is given, the exact number is not on record here.

On to `NC(=O)C1=C(O)C[C@@H]2C[C@H]3C(=C(O)C2C1=O)C(=O)c1c(O)ccc(Cl)c1[C@H]3O` (stereo partly drawn) [1-H, 7-chloro-3,6,10,12-tetrahydroxy-1,11-dioxo-1,4,4α,5,5α,6,11,12α-octahydrotetracene-2-carboxamide], for which the “residual Thioflavin-T fluorescence level” value in experiment [1] stood at 1.5%. The MIC in the experiment with E. coli DH5α (setting [3]) and in the experiment on E. coli DH5α (Escherichia coli) was greater than 2000 µM throughout. In addition, the EC50 in experiment [2] was 810 nM.
In the case of `C[C@H]1c2cccc(O)c2C(=O)C2=C(O)[C@]3(O)C(=O)C(C(N)=O)=C(O)[C@@H](N(C)C)[C@@H]3[C@@H](O)[C@@H]21` [DOX, doxycycline, reference compound], the “residual Thioflavin-T fluorescence level” value in experiment [1] is recorded as 21.1%. Moreover, in the experiment on E. coli DH5α (setting [4]), the MIC amounted to 62.5 µM (≈ 27.8 µg/mL). Further, the EC50 in experiment [2] was 5200 nM.
`C[C@@]1(O)c2c(Cl)ccc(O)c2C(=O)C2=C(O)C3C(=O)C(C(N)=O)=C(O)C[C@@H]3C[C@@H]21` (stereo partly drawn) [1-Me, 7-chloro-3,6,10,12-tetrahydroxy-6-methyl-1,11-dioxo-1,4,4α,5,5α, 6,11,12α-octahydrotetracene-2-carboxamide]: the “residual Thioflavin-T fluorescence level” value in experiment [1] is 13.5%. For the same molecule, the MIC with E. coli DH5α (setting [3]) and in the experiment on E. coli DH5α (setting [4]) was greater than 2000 µM throughout. Also, the EC50 in experiment [2] was 2010 nM.

The values above are taken from US20230390309A1, “TETRACYCLINE DERIVATIVES FOR TREATING NEURODEGENERATIVE OR NEUROINFLAMMATORY DISEASES” (INSTITUT DU CERVEAU ET DE LA MOELLE EPINIERE, priority 2020, published 2023).
